test system: TEAD-dependent transcription; experiment: TEAD-dependent transcription cell-based reporter assay (MSTO-211H+12XGTIIC luciferase); parameters: species or system human; settings: Homo sapiens; MSTO-211H+12XGTIIC cell line, luciferase signal normalized to cell viability, 24 hours compound incubation; read-out: MSTO-211H GMean IC50 (uM) Cell Assay Reporter Cell Variant: TEAD
Source text: Determine Inhibitor Activity Against TEAD-Dependent Transcription in a Cell-Based Reporter Assay
The human mesothelioma cell line MSTO-211H was stably transfected with a pGL4.21 plasmid containing a synthetic promoter with 12 copies of the GTIIC TEAD response element that drives the expression of a luciferase reporter gene^1 using Lipofectamine transfection reagent (Thermo Fisher). Transfected cells were selected using puromycin and single cell clones expressing this construct (referred to as MSTO-211H+12XGTIIC) were generated by limiting dilution. MSTO-211H cells was characterized by genetic alterations in key components of the Hippo pathway^2, resulting in up-regulation of YAP/TEAD-mediated transcription. […] To evaluate TEAD inhibitors, the MSTO-211H+12XGTIIC cell line was seeded in a 96-well plate in 50 μL of culture media at 1×10^4 cells per well and incubated at 37° C. overnight. Serial dilutions of compounds (in total volume of 50 μL of culture media) were added to the cells and incubated at 37° C. for 24 hours. Each plate included cells treated with DMSO as high controls and cells treated with 20 μM of the reference compound K-975 (a known TEAD inhibitor)^3 as low controls. Cell viability was assayed by the addition of 25 μL of CellTiter-Fluor reagent (Promega) followed by a 30-minute incubation at 37° C. and quantification of the fluorescence signal (Ex400/Em505). Subsequently, luciferase expression was assayed by the addition of 25 μL of ONE-Glo reagent (Promega) followed by a 10-minute incubation at room temperature and quantification of the luminescence signal. The luminescence signal was normalized to the fluorescence signal to correct for any loss in cell viability over the 24-hour compound incubation period. The percentage of inhibition of normalized luminescence signal, indicative of compound-mediated inhibition of TEAD-dependent transcription, at individual compound concentrations relative to high and low controls was calculated. The data were analyzed by using nonlinear regression to generate IC50 values for individual compounds.

Compound | IC50 [µM]
O=C(CC1COC1)N1CCc2ccc(Oc3ccc(C(F)(F)F)cc3)cc2C1 [P-0069, 2-(oxetan-3-yl)-1-(7-(4-(trifluoromethyl)phen-oxy)-3,4-dihydroisoquin-olin-2(1H)-yl)ethan-1-one] | 0.001 to 10
NC1=NC(=O)C(CC(=O)N2CCc3ccc(Oc4ccc(C(F)(F)F)cc4)cc3C2)S1 (centres unmarked) [P-0070, 2-amino-5-(2-oxo-2-(7-(4-(trifluoromethyl)-phenoxy)-3,4-dihydroiso-quinolin-2(1H)-yl)ethyl)-thiazol-4(5H)-one] | 0.001 to 10
CS(=O)(=O)NCC(=O)N1CCc2ccc(Oc3ccc(C(F)(F)F)cc3)cc2C1 [P-0071, N-(2-oxo-2-(7-(4-(trifluoromethyl)phen-oxy)-3,4-dihydroisoquin-olin-2(1H)-yl)ethyl)-methanesulfonamide] | 0.001 to 10
O=C(CC1CS(=O)(=O)C1)N1CCc2ccc(Oc3ccc(C(F)(F)F)cc3)cc2C1 [P-0072, 2-(1,1-dioxidothietan-3-yl)-1-(7-(4-(trifluoro-methyl)phenoxy)-3,4-dihydroisoquinolin-2(1H)-yl)ethan-1-one] | 0.001 to 10
Nc1nc(C(=O)N2CCc3ccc(Oc4ccc(C(F)(F)F)cc4)cc3C2)cs1 [P-0073, (2-aminothiazol-4-yl)(7-(4-(trifluoromethyl)phen-oxy)-3,4-dihydroisoquin-olin-2(1H)-yl)methanone] | 0.001 to 10
CS(=O)(=O)c1cccnc1C(=O)N1CCc2ccc(Oc3ccc(C(F)(F)F)cc3)cc2C1 [P-0074, (3-(methylsulfonyl)pyr-idin-2-yl)(7-(4-(trifluoro-methyl)phenoxy)-3,4-dihydroisoquinolin-2(1H)-yl)methanone] | 0.001 to 10
CS(=O)(=O)c1ncc(C(=O)N2CCc3ccc(Oc4ccc(C(F)(F)F)cc4)cc3C2)s1 [P-0075, (2-(methylsulfonyl)thi-azol-5-yl)(7-(4-(trifluoro-methyl)phenoxy)-3,4-dihydroisoquinolin-2(1H)-yl)methanone] | 0.001 to 10
O=C(CCC(=O)C(F)(F)F)N1CCc2ccc(Oc3ccc(C(F)(F)F)cc3)cc2C1 [P-0076, 5,5,5-trifluoro-1-(7-(4-(trifluoromethyl)phen-oxy)-3,4-dihydroisoquin-olin-2(1H)-yl)pentane-1,4-dione] | 0.001 to 10
O=C(C1CS(=O)(=O)C1)N1CCc2ccc(Oc3ccc(C(F)(F)F)cc3)cc2C1 [P-0077, (1,1-dioxidothietan-3-yl)(7-(4-(trifluorometh-yl)phenoxy)-3,4-dihydro-isoquinolin-2(1H)-yl)-methanone] | 0.001 to 10
CS(=O)(=O)CC(=O)N1CCc2ccc(Oc3ccc(C(F)(F)F)cc3)cc2C1 [P-0078, 2-(methylsulfonyl)-1-(7-(4-(trifluoromethyl)phen-oxy)-3,4-dihydroisoquin-olin-2(1H)-yl)ethan-1-one] | 0.001 to 10
NC(=O)NCC(=O)N1CCc2ccc(Oc3ccc(C(F)(F)F)cc3)cc2C1 [P-0079, 1-(2-oxo-2-(7-(4-(trifluoromethyl)phen-oxy)-3,4-dihydroisoquin-olin-2(1H)-yl)ethyl)urea] | 0.001 to 10
CS(=O)(=O)N1CC(C(=O)N2CCc3ccc(Oc4ccc(C(F)(F)F)cc4)cc3C2)C1 [P-0080, (1-(methylsulfonyl)azeti-din-3-yl)(7-(4-(trifluoro-methyl)phenoxy)-3,4-dihydroisoquinolin-2(1H)-yl)methanone] | 0.001 to 10
CS(=O)(=O)c1cc(C(=O)N2CCc3ccc(Oc4ccc(C(F)(F)F)cc4)cc3C2)ccn1 [P-0081, (2-(methylsulfonyl)pyr-idin-4-yl)(7-(4-(trifluoro-methyl)phenoxy)-3,4-dihydroisoquinolin-2(1H)-yl)methanone] | 0.001 to 10
CS(=O)(=O)c1ccc(C(=O)N2CCc3ccc(Oc4ccc(C(F)(F)F)cc4)cc3C2)cn1 [P-0082, (6-(methylsulfonyl)pyr-idin-3-yl)(7-(4-(trifluoro-methyl)phenoxy)-3,4-dihydroisoquinolin-2(1H)-yl)methanone] | 0.001 to 10
